Data published in patent US9902735B2, “Heteroaryl substituted compounds as RORγ inhibitors” (GlaxoSmithKline Intellectual Property Developement Limited, priority 2014, dated 2018).

Target: T1, Human RORγ Ligand Binding Domain (RORγ-LBD) (Homo sapiens, UniProt P51449)
T1 construct: made in house; host or cells: E. coli BL21(DE3)
T1 sequence (P51449 263-518): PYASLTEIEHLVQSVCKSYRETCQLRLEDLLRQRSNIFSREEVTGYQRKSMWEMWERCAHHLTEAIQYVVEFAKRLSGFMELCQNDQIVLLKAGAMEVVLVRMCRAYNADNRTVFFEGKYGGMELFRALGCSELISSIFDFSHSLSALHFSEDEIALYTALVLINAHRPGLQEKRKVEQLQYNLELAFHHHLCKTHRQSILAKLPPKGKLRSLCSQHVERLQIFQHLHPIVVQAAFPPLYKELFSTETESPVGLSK
Assay: Dual Fluorescence Energy Transfer (FRET) assay
Format: biochemical
Settings: mean of multiple test results if tested more than once; read-out: pIC50 in the dual FRET assay (converted)
Text: This assay is based on the knowledge that nuclear receptors interact with cofactors (transcription factors) in a ligand dependent manner. RORγ is a typical nuclear receptor in that it has an AF2 domain in the ligand binding domain (LBD) which interacts with co-activators. The sites of interaction have been mapped to the LXXLL motifs in the co-activator SRC1(2) sequences. Short peptide sequences containing the LXXLL motif mimic the behavior of full-length co-activator.
The assay measures ligand-mediated interaction of the co-activator peptide with the purified bacterial-expressed RORγ ligand binding domain (RORγ-LBD) to indirectly assess ligand binding. RORγ has a basal level of interaction with the co-activator SRC1(2) in the absence of ligand, thus it is possible to find ligands that inhibit or enhance the RORγ/SRC1(2) interaction.
Human RORγ Ligand Binding Domain (RORγ-LBD) was expressed in E. coli strain BL21(DE3) as an amino-terminal polyhistidine tagged fusion protein. DNA encoding this recombinant protein was sub-cloned into a modified pET21a expression vector (Novagen). […]
Approximately 50 g E. coli cell pellet was resuspended in 300 mL of lysis buffer (30 mM imidazole pH 7.0 and 150 mM NaCl). […] After washing to baseline absorbance with the equilibration buffer, the column was developed with a gradient from 30 to 500 mM imidazole pH 7.0. […]

Compound: Cc1ncc(C(=O)Nc2cc(Cl)cc(CN3CCN(C(=O)CC4CC4)[C@@H](C)C3)c2C)cc1F [Example 80, (S)—N-(5-chloro-3-((4-(2-cyclopropylacetyl)-3-methylpiperazin-1-yl)methyl)-2-methylphenyl)-5-fluoro-6-methylnicotinamide]
- IC50: ~100 nM
